Measured values reported in PubChem BioAssay (NCI).
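Tested at 5 concentrations; 48 h exposure; 96-well plates; endpoints linearly interpolated, else capped at highest concentration. Definition used: TGI = concentration required for complete inhibition of growth.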

Experiments:
Test in all cases: NCI anticancer screen, dose series, 48 h
[1] = test system: 786-0 renal
[2] = test system: A498 renal
[3] = test system: A549 NSCLC
[4] = test system: ACHN renal
[5] = test system: CAKI-1 renal
[6] = test system: CCRF-CEM leukemia
[7] = test system: COLO 205 colon
[8] = test system: DLD-1 colon
[9] = test system: DMS 114 small cell lung
[10] = test system: DMS 273 small cell lung
[11] = test system: EKVX NSCLC
[12] = test system: HCC-2998 colon
[13] = test system: HCT-116 colon
[14] = test system: HCT-15 colon
[15] = test system: HL-60(TB) leukemia
[16] = test system: HOP-18 NSCLC
[17] = test system: HOP-62 NSCLC
[18] = test system: HOP-92 NSCLC
[19] = test system: HT29 colon
[20] = test system: IGROV1 ovarian
[21] = test system: K-562 leukemia
[22] = test system: KM12 colon
[23] = test system: KM20L2 colon
[24] = test system: LOX IMVI melanoma
[25] = test system: LXFL 529 NSCLC
[26] = test system: M14 melanoma
[27] = test system: M19-MEL melanoma
[28] = test system: MALME-3M melanoma
[29] = test system: MOLT-4 leukemia
[30] = test system: NCI-H226 lung
[31] = test system: NCI-H23 lung
[32] = test system: NCI-H460 lung
[33] = test system: NCI-H522 lung
[34] = test system: OVCAR-3 ovarian
[35] = test system: OVCAR-4 ovarian
[36] = test system: OVCAR-5 ovarian
[37] = test system: OVCAR-8 ovarian
[38] = test system: RPMI-8226 leukemia
[39] = test system: RXF 393 renal
[40] = test system: RXF-631 renal
[41] = test system: SF-268 CNS
[42] = test system: SF-295 CNS
[43] = test system: SF-539 CNS
[44] = test system: SK-MEL-2 melanoma
[45] = test system: SK-MEL-28 melanoma
[46] = test system: SK-MEL-5 melanoma
[47] = test system: SK-OV-3 ovarian
[48] = test system: SN12C renal
[49] = test system: SNB-19 CNS
[50] = test system: SNB-75 CNS
[51] = test system: SNB-78 CNS
[52] = test system: SR leukemia
[53] = test system: SW-620 colon
[54] = test system: TK-10 renal
[55] = test system: U251 CNS
[56] = test system: UACC-257 melanoma
[57] = test system: UACC-62 melanoma
[58] = test system: UO-31 renal
[59] = test system: XF 498 CNS
[60] = test system: BT-549 breast
[61] = test system: DU-145 prostate
[62] = test system: HS 578T breast
[63] = test system: MCF7 breast
[64] = test system: MDA-MB-231 breast
[65] = test system: MDA-MB-435
[66] = test system: MDA-N
[67] = test system: NCI/ADR-RES ovarian
[68] = test system: PC-3 prostate
[69] = test system: T-47D breast

Molecule `CCCCCCCCCC1CC(=O)Oc2cccc(O)c21` (configuration not stated) has a TGI [1] of 30.6 µM, a TGI [2] of 42 µM and a TGI [3] of 83.4 µM. The TGI [4] was over 84.8 µM, the TGI [5] was 76.3 µM and the TGI [6] was 77.1 µM. It also gave a TGI [7] of 31.3 µM, a TGI [8] of over 71 µM and a TGI [9] of 45.7 µM. The TGI [10] was 19.3 µM, the TGI [11] was over 84.6 µM and the TGI [12] was over 20.2 µM. It also gave a TGI [13] of over 100 µM, a TGI [14] of 57.1 µM and a TGI [15] of 62 µM. It also gave a TGI [16] of 97.3 µM, a TGI [17] of 80.9 µM and a TGI [18] of over 70.3 µM. For the same molecule, the TGI [19] was 53.8 µM, the TGI [20] was 55.2 µM and the TGI [21] was 66.3 µM. It also gave a TGI [22] of 39.1 µM, a TGI [23] of over 100 µM and a TGI [24] of 35.6 µM. The TGI [25] was 63.2 µM, the TGI [26] was 49.6 µM and the TGI [27] was over 96.7 µM. The TGI [28] was 38.1 µM, the TGI [29] was over 85.3 µM and the TGI [30] was 99.5 µM. The TGI [31] was 84.2 µM, the TGI [32] was 30.7 µM and the TGI [33] was 45.3 µM. It also gave a TGI [34] of 24.9 µM, a TGI [35] of over 78.3 µM and a TGI [36] of over 85.4 µM. For the same molecule, the TGI [37] was over 81.2 µM, the TGI [38] was 83.4 µM and the TGI [39] was 46.6 µM. For the same molecule, the TGI [40] was 20.2 µM, the TGI [41] was over 100 µM and the TGI [42] was over 83.3 µM. For the same molecule, the TGI [43] was 71.7 µM, the TGI [44] was over 72.7 µM and the TGI [45] was over 70.9 µM. The TGI [46] was 35.2 µM, the TGI [47] was over 92.2 µM and the TGI [48] was 15.7 µM. It also gave a TGI [49] of over 88.2 µM, a TGI [50] of over 100 µM and a TGI [51] of over 100 µM. The TGI [52] was 64.2 µM, the TGI [53] was over 69.4 µM and the TGI [54] was over 100 µM. For the same molecule, the TGI [55] was 25.4 µM, the TGI [56] was over 100 µM and the TGI [57] was 98.3 µM. It also gave a TGI [58] of 75.1 µM and a TGI [59] of 49.7 µM.

In the case of `CCOC1c2cc(OC)c(OC)cc2-c2ccc3ccccc3c2N1C` (configuration not stated), the TGI [1] is reported as over 64.6 µM, the TGI [3] is reported as 52.7 µM and the TGI [4] is reported as over 87.5 µM. It also gave a TGI [60] of 28.6 µM, a TGI [5] of over 79.7 µM and a TGI [6] of over 100 µM. For the same molecule, the TGI [7] was 22.8 µM, the TGI [8] was over 75.1 µM and the TGI [9] was 24.6 µM. The TGI [10] was 20.2 µM, the TGI [61] was 52.4 µM and the TGI [11] was 56.3 µM. The TGI [12] was 31.3 µM, the TGI [13] was 17.7 µM and the TGI [14] was over 83 µM. For the same molecule, the TGI [15] was over 96.5 µM, the TGI [16] was over 100 µM and the TGI [17] was 42.6 µM. For the same molecule, the TGI [18] was 58.4 µM, the TGI [62] was 34.1 µM and the TGI [19] was 46.6 µM. For the same molecule, the TGI [20] was 63.3 µM, the TGI [21] was over 100 µM and the TGI [22] was 21.1 µM. For the same molecule, the TGI [23] was over 90.5 µM, the TGI [24] was 41.5 µM and the TGI [25] was 24.2 µM. It also gave a TGI [26] of 40.2 µM, a TGI [27] of 25.9 µM and a TGI [28] of 24.1 µM. The TGI [63] was 51 µM, the TGI [64] was 36.6 µM and the TGI [65] was 36.7 µM. The TGI [66] was 28.6 µM, the TGI [29] was over 82.7 µM and the TGI [30] was 66.9 µM. The TGI [31] was 28.1 µM, the TGI [32] was 35.5 µM and the TGI [33] was 18.3 µM. For the same molecule, the TGI [67] was 96.5 µM, the TGI [34] was 50.9 µM and the TGI [35] was 54.5 µM. The TGI [36] was over 80.2 µM, the TGI [37] was 31.6 µM and the TGI [68] was 21.6 µM. The TGI [38] was over 88.7 µM, the TGI [39] was 58.5 µM and the TGI [40] was over 56.8 µM. The TGI [41] was 23.6 µM, the TGI [42] was over 75.9 µM and the TGI [43] was 55.6 µM. It also gave a TGI [44] of 28.6 µM, a TGI [45] of 28.7 µM and a TGI [46] of 30.8 µM. The TGI [47] was 59 µM, the TGI [48] was 46.5 µM and the TGI [49] was 54.7 µM. It also gave a TGI [50] of 34.9 µM, a TGI [51] of over 100 µM and a TGI [52] of over 100 µM. For the same molecule, the TGI [53] was 49.4 µM, the TGI [69] was 67.1 µM and the TGI [54] was 78.3 µM. The TGI [55] was 33 µM, the TGI [56] was 42.1 µM and the TGI [57] was 26.8 µM. The TGI [58] was over 77.8 µM and the TGI [59] was 31.8 µM.
